Assay results from patent publication US9512111B2, “N-sulfonylated tetrahydroquinolines and related bicyclic compounds for inhibition of RORγ activity and the treatment of disease” (Lycera Corporation, priority 2010, dated 2016).
pIC50: −log10 of the molar value.

Molecular target: T1, RORγ-LBD (Homo sapiens, UniProt P51449)
T1 construct: HIS-tagged RORγ-LBD was recombinantly expressed in SF9 cells; made in house; host or cells: SF9 cells (baculovirus); unpurified lysate
T1 sequence (P51449 269-508 limits assumed): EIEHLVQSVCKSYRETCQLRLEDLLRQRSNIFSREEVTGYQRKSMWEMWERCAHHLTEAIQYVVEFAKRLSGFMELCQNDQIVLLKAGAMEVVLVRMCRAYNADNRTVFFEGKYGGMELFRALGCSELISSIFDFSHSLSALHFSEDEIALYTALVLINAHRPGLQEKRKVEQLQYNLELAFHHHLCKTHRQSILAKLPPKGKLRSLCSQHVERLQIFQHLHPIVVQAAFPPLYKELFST
Test: RORγ-Ligand Binding Domain TR-FRET Assay
Type: biochemical
Protocol: HIS-tagged RORγ-LBD was recombinantly expressed in SF9 cells using a baculovirus expression system. The protein was not purified. Cells were lysed and the lysate was used as a source for RORγ-LBD for the assay. A 1:80 dilution of RORγ-LBD lysate in assay buffer (25 mM HEPES pH 7.0, 100 mM NaCl, 0.01% Tween, 0.1% BSA) was prepared and 5 μL was added to each well (RORγ-LBD final concentration ˜10 nM). Control wells received lysate from SF9 cells not expressing RORγ-LBD.
Compounds to be tested were diluted to 100× final test concentration in DMSO and further diluted to 4× final test concentration using assay buffer to provide the test compound mixture. An aliquot (5 μL) of the test compound mixture was added to each well.
A 4× stock of biotinylated-LXXLL peptide from SRC1-2 (Biotin-[…]) was prepared in assay buffer and a 5 μL aliquot added to each well (450 nM final concentration). A 4× solution of europium tagged anti-HIS antibody (2 nM final concentration) and APC conjugated streptavidin (60 nM final concentration) were prepared and a 5 μL aliquot added to each well.
The final assay mixture was incubated for 4 hours to overnight, and the fluorescence signal was measured on an Envision plate reader: (Excitation filter=340 nm; APC emission=665 nm; Europium emission=615 nm; dichroic mirror=D400/D630; delay time=100 μs, integration time=200 μs).
IC50 values for test compounds were calculated from the quotient of the fluorescence signal at 665 nm divided by the fluorescence signal at 615 nm using GraphPad Prism software.

| Compound | pIC50 (benzoxazines, Table 9) | pIC50 (Table 8, indazoles) |
| --- | --- | --- |
| N#CC[C@H]1CN(S(=O)(=O)c2ccc(F)cc2)c2cc(NC(=O)c3c(F)cccc3Cl)ccc2O1 [Compound 19, (S)-2-Chloro-N-(2-(cyanomethyl)-4-((4-fluorophenyl)sulfonyl)-3,4-dihydro-2H-benzo[b][1,4]oxazin-6-yl)-6-fluorobenzamide] | > 4.82 |  |
| O=C(Cc1ccc(Cl)cc1)Nc1ccc2c(c1)N(S(=O)(=O)c1ccc(Cl)cc1)C[C@H](CO)O2 [VI-66] | > 4.82 |  |
| C[C@H](O)[C@H]1CN(S(=O)(=O)c2ccc(F)cc2)c2cc(NC(=O)c3c(F)cccc3Cl)ccc2O1 [VI-23] | > 4.82 |  |
| Cc1cccc(F)c1C(=O)Nc1ccc2cnn(S(=O)(=O)c3cccc(C(F)(F)F)c3)c2c1 [Compound V-1] |  | > 4.82 |
| N#Cc1cccc(S(=O)(=O)N2C[C@H](CO)Oc3ccc(NC(=O)c4c(F)cccc4F)cc32)c1 [VI-65] | > 4.82 |  |
| N#Cc1cccc(S(=O)(=O)N2C[C@@H](CO)Oc3ccc(NC(=O)c4c(F)cccc4C(F)(F)F)cc32)c1 [VI-57] | > 4.82 |  |
| COc1cccc(S(=O)(=O)n2ncc3ccc(NC(=O)Cc4cc(F)cc(F)c4)cc32)c1 [Compound V-16] |  | > 4.82 |
| Cc1nn(C(F)F)cc1S(=O)(=O)n1ncc2ccc(NC(=O)c3c(Cl)cccc3Cl)cc21 [Compound V-65] |  | > 4.82 |
| Cc1ccc(S(=O)(=O)n2ncc3ccc(NC(=O)c4c(F)cccc4Cl)cc32)c(C)c1 [Compound V-103] |  | > 4.82 |
| O=C(Nc1ccc2cnn(S(=O)(=O)Cc3cc(Cl)cc(Cl)c3)c2c1)c1c(F)cccc1Cl [Compound V-138] |  | > 4.82 |
| COc1ccc(F)cc1S(=O)(=O)n1ncc2ccc(NC(=O)c3c(F)cccc3Cl)cc21 [Compound V-100] |  | > 4.82 |
| CC(C)(C)c1cccc(S(=O)(=O)n2ncc3ccc(NC(=O)c4c(F)cccc4C(F)(F)F)cc32)c1 [Compound V-11] |  | > 4.82 |
| Cc1cccc(S(=O)(=O)n2ncc3ccc(NC(=O)c4c(Cl)cccc4C(F)(F)F)cc32)c1 [Compound V-37] |  | > 4.82 |
| CCCNCC1CN(S(=O)(=O)c2ccc(F)cc2)c2cc(NC(=O)c3c(F)cccc3Cl)ccc2O1 (stereo not drawn) [VI-33] | > 4.82 |  |
| COc1cccc(S(=O)(=O)n2ncc3ccc(NC(=O)Cc4ccc(Cl)cc4)cc32)c1 [Compound V-32] |  | > 4.82 |
| O=C(Nc1ccc2c(c1)N(S(=O)(=O)c1ccc(Cl)cc1)C[C@@H](CO)O2)c1c(F)cccc1F [VI-55] | > 4.82 |  |
| COc1cccc(S(=O)(=O)n2ncc3ccc(NC(=O)Cc4ccc(F)cc4)cc32)c1 [Compound V-26] |  | > 4.82 |
| COC(=O)c1ccc(S(=O)(=O)n2ncc3ccc(NC(=O)c4c(F)cccc4Cl)cc32)o1 [Compound V-151] |  | > 4.82 |

| Compound | pIC50 (benzoxazines, Table 9) | pIC50 (Table 8, indazoles) |
| --- | --- | --- |
| CCn1cc(S(=O)(=O)n2ncc3ccc(NC(=O)c4c(F)cccc4Cl)cc32)cn1 [Compound V-113] |  | > 4.82 |
| O=C(Nc1ccc2cnn(S(=O)(=O)c3ccccc3C(F)(F)F)c2c1)c1c(F)cccc1Cl [Compound V-132] |  | > 4.82 |
| O=C(Nc1ccc2cnn(S(=O)(=O)c3ccsc3)c2c1)c1c(F)cccc1Cl [Compound V-99] |  | > 4.82 |
| C[C@H]1CN(S(=O)(=O)c2ccc(F)cc2)c2cc(NC(=O)C3(c4ccc(Cl)cc4)CC3)ccc2O1 [VI-131] | > 4.82 |  |
| Cc1nn(C(F)F)cc1S(=O)(=O)n1ncc2ccc(NC(=O)c3c(F)cccc3F)cc21 [Compound V-13] |  | > 4.82 |
| O=C(Nc1ccc2cnn(S(=O)(=O)c3ccc(F)c(C(F)(F)F)c3)c2c1)c1c(F)cccc1C(F)(F)F [Compound V-44] |  | > 4.82 |
| O=C(Nc1ccc2cnn(S(=O)(=O)c3cccc(Cl)c3)c2c1)c1c(F)cccc1C(F)(F)F [Compound V-48] |  | > 4.82 |
| CCNCC1CN(S(=O)(=O)c2ccc(F)cc2)c2cc(NC(=O)c3c(F)cccc3Cl)ccc2O1 (stereo not drawn) [VI-34] | > 4.82 |  |
| CCc1ccc(S(=O)(=O)n2ncc3ccc(NC(=O)c4c(F)cccc4Cl)cc32)cc1 [Compound V-116] |  | > 4.82 |
| Cc1nn(C(F)F)cc1S(=O)(=O)n1ncc2ccc(NC(=O)Cc3ccc(F)c(F)c3)cc21 [Compound V-17] |  | > 4.82 |
| O=C(Cc1ccc(F)cc1)Nc1ccc2c(c1)N(S(=O)(=O)c1ccc(Cl)cc1)C[C@H](CO)O2 [VI-68] | > 4.82 |  |
| CC(C(=O)Nc1ccc2c(c1)N(S(=O)(=O)c1ccc(F)cc1)C[C@H](C)O2)c1ccc(Cl)cc1 (stereo partly drawn) [VI-136] | > 4.82 |  |
| COc1ccc(C)cc1S(=O)(=O)n1ncc2ccc(NC(=O)c3c(F)cccc3Cl)cc21 [Compound V-78] |  | > 4.82 |
| O=C(Nc1ccc2cnn(S(=O)(=O)c3ccc(F)cc3)c2c1)c1c(F)cccc1Cl [Compound V-171] |  | > 4.82 |
| N#Cc1cccc(S(=O)(=O)N2C[C@H](CO)Oc3ccc(NC(=O)Cc4ccc(Cl)cc4)cc32)c1 [VI-61] | > 4.82 |  |
| O=C(Nc1ccc2c(c1)N(S(=O)(=O)c1ccc(F)cc1)C[C@H](CO)O2)c1c(F)cccc1Cl [Compound 18, (R)-2-Chloro-6-fluoro-N-(4-((4-fluorophenyl)sulfonyl)-2-(hydroxymethyl)-3,4-dihydro-2H-benzo[b][1,4]oxazin-6-yl)benzamide] | < 4.82 |  |
| Cc1ccc(S(=O)(=O)n2ncc3ccc(NC(=O)c4c(F)cccc4Cl)cc32)cc1Cl [Compound V-127] |  | > 4.82 |

The next lines start with the values.

| pIC50 (benzoxazines, Table 9) | pIC50 (Table 8, indazoles) | Compound |
| --- | --- | --- |
|  | > 4.82 | CNC(=O)c1cccc(S(=O)(=O)n2ncc3ccc(NC(=O)c4c(F)cccc4Cl)cc32)c1 [Compound V-107] |
|  | > 4.82 | CC(=O)c1cccc(S(=O)(=O)n2ncc3ccc(NC(=O)Cc4cc(F)cc(F)c4)cc32)c1 [Compound V-15] |
|  | > 4.82 | O=C(Nc1ccc2cnn(S(=O)(=O)c3ccc(F)cc3F)c2c1)c1c(F)cccc1Cl [Compound V-168] |
|  | > 4.82 | Cc1ncc(CC(=O)Nc2ccc3cnn(S(=O)(=O)c4cccc(C(C)(C)C)c4)c3c2)s1 [Compound V-2] |
|  | > 4.82 | CC(=O)c1cccc(S(=O)(=O)n2ncc3ccc(NC(=O)Cc4ccc(F)cc4)cc32)c1 [Compound V-24] |
|  | > 4.82 | O=C(Nc1ccc2cnn(S(=O)(=O)c3ccc(F)c(C(F)(F)F)c3)c2c1)c1c(Cl)cccc1C(F)(F)F [Compound V-33] |
|  | > 4.82 | Cc1ccc(S(=O)(=O)n2ncc3ccc(NC(=O)c4c(F)cccc4Cl)cc32)c(F)c1 [Compound V-118] |
|  | > 4.82 | CN(C)C(=O)Nc1ccc(S(=O)(=O)n2ncc3ccc(NC(=O)c4c(F)cccc4Cl)cc32)cc1 [Compound V-134] |
|  | > 4.82 | O=C(Nc1ccc2cnn(S(=O)(=O)c3cc(F)cc(F)c3)c2c1)c1c(F)cccc1Cl [Compound V-114] |
|  | > 4.82 | O=C(Nc1ccc2cnn(S(=O)(=O)Cc3ccc(C(F)(F)F)cc3)c2c1)c1c(F)cccc1Cl [Compound V-140] |
|  | > 4.82 | Cc1nn(C(F)F)cc1S(=O)(=O)n1ncc2ccc(NC(=O)Cc3ccc(Cl)cc3)cc21 [Compound V-27] |
|  | > 4.82 | CNC(=O)Nc1ccc(S(=O)(=O)n2ncc3ccc(NC(=O)c4c(F)cccc4Cl)cc32)cc1Cl [Compound V-133] |
|  | > 4.82 | COC(=O)c1cc(S(=O)(=O)n2ncc3ccc(NC(=O)c4c(F)cccc4Cl)cc32)oc1C [Compound V-150] |
|  | > 4.82 | COc1ccc(S(=O)(=O)n2ncc3ccc(NC(=O)c4c(F)cccc4Cl)cc32)cn1 [Compound V-162] |
|  | > 4.82 | CC(C)(C)c1cccc(S(=O)(=O)n2ncc3ccc(NC(=O)c4c(F)cccc4F)cc32)c1 [Compound V-57] |
|  | > 4.82 | O=C(Nc1ccc2cnn(S(=O)(=O)c3cccc(Cl)c3)c2c1)c1c(Cl)cccc1C(F)(F)F [Compound V-39] |
